Where a SMILES comes first, the peptide text is derived from it.

This data set can be described thus: Kinetics in blood after injection into the tail vein. More on the design: species or system C57BL/6j mouse. Conditions: female, C57BL/6j, mouse, in vivo, iv. As to the method:
The kinetics in blood of the peptide of the formula (14) prepared in the Reference Example and the [^14 C]-labeled complex prepared in Example D-2 were studied.
To the vein of the tail of a C57BL/6j mouse (8 weeks old, female), 1,000 μg/0.2 cm^3 of the peptide or 100 μg/0.2 cm^3 of the labeled complex was injected. Upon expiration of a predetermined period of time, the carotid artery was cut for blood sampling. To quantitatively analyze the amount of the peptide in blood, to 1 cm^3 of the sampled blood, the same amount of 10% trifluoroacetic acid was added, followed by centrifugal separation at a speed of 10,000 rpm to precipitate the denatured protein, and the supernatant was recovered. […] To the obtained freeze-dried product, 0.2 cm^3 of distilled water was added, and the quantitative analysis was conducted by reversed phase (C18) chromatography. The quantitative analysis was conducted based on the quantitative curve obtained with a standard product (the peptide prepared in the Reference Example and quantitatively analyzed by an amino acid analysis).
To quantitatively analyze the [^14 C]-labeled complex, 2.5 cm^3 of a tissue solubilizer (NCA, Amersham Company) was added to 0.2 cm^3 of the sampled blood, followed by heating at 50° C. for two hours to solubilize the blood. […]

For `C[C@H](N)C(=O)N[C@@H](CCC(=O)O)C(=O)N[C@@H](CC(=O)O)C(=O)NCC(=O)N[C@@H](CC(=O)O)C(=O)N[C@@H](C)C(=O)N[C@@H](CCCCN)C(=O)N[C@H](C(=O)N[C@@H](CC(=O)O)C(=O)N[C@@H](CCC(N)=O)C(=O)N[C@@H](C)C(=O)N[C@@H](CCC(=O)O)C(=O)N[C@@H](CCCCN)C(=O)N[C@@H](C)C(=O)N[C@@H](CCC(=O)O)C(=O)NCC(=O)N[C@@H](C)C(=O)NCC(=O)N[C@@H](CC(=O)O)C(=O)N[C@@H](C)C(=O)N[C@@H](CCCCN)C(=O)O)[C@@H](C)O` [peptide of the formula (14), Ala-Glu-Asp-Gly-Asp-Ala-Lys-Thr-Asp-Glx-Ala-Glx-Lys-Ala-Glu-Gly-Ala-Gly-As p-Ala-Lys] (H-AEDGDAKTDQAEKAEGAGDAK-OH), the half-life (commonly how long it takes for the measured level to halve) is approximately 20 s.

These data come from patent US5548062A, “Tumor cell invasion-inhibiting peptides, peptide complexes and cancer metastasis inhibitors” (Asahi Glass Company Ltd., priority 1990, dated 1996).
